Where a name gives a salt, the structure may show the parent alone. Marks after values point to notes of the source that are not given here.
Legend:
[1] = system: C. elegans; assay: Camera-based locomotion tracking (repeated dosing); format: in vivo, Caenorhabditis elegans; conditions: Table 2, day 7 post-reproductive adults; for Cell occupancy ± SEM: squares of 1 mm^2
Description: (§1) Locomotion of C. elegans is characterized by sinusoidal movements (i.e. body bends), and progressively diminishes during adult life. As in other animals, maintenance of coordinated movement is considered a prime health span parameter^5.
To quantify locomotion effects in more detail, we utilized an automated tracking system for C. elegans that is compatible with standard petri plates. The multi-camera tracking system allows for objective quantification of mean locomotion speed, maximal locomotion speed and multiple behavioral parameters via path-based image analysis. The system was utilized similar to Peymen et al^8. Two distinct assays were performed. In a first assay (Table 2), the locomotion effects of Gal, Met and a combination of both compounds was assayed. This allowed to test for synergetic effects between Gal and Met on multiple locomotion parameters. In a second assay (Table 3), we characterized the locomotion effects of the combination of Met with different acetylcholinesterase inhibitors (i.e. Gal, Don and Riv), as well as the combination of Met with the acetylcholinesterase inhibitor-like compound Mem. As such, we were able to test whether there is a class effect of acetylcholinesterase inhibitors as a whole (in combination with Met). Synchronized wild-type animals were grown in the presence of the corresponding compounds at different doses from the L4 stage (i.e. day 0) and FUdR, until the start of the measurement. Animals were re-dosed thrice (at day 2, 4 and 7) via transfer to fresh compound-treated NGM plates. Prior to imaging, for each replicate 20 well-fed living animals were manually transferred from their culture plate to an unseeded NGM plate, and after 5 min transferred to another unseeded NGM plate used for imaging. Image acquisition took place with StreamPix 6 multicamera software (GigE PRO GP11004M camera with KOWA LM16JC10M lens) for 11 min at 2 fps and a constant exposure, after which worms were tracked using custom particle-tracking MATLAB code. For each mobile animal (i.e. an animal that moved for at least 2 min during the imaging period), both mean and maximal locomotion speeds were extracted, as well as the behavioral metrics ‘cell occupancy’ and ‘fraction running’. The latter represents the fraction of time that an animal was detected to be running (as opposed to pausing or turning). Cell occupancy is a metric quantifying the spatial search efficiency of a worm. Cell occupancy values represent the number of unique cells (squares of 1 mm^2) that the worm visited during the imaging period. Both behavioral parameters decline during aging. Experiments were performed in triplicate (or quadruplicate), with 20 worms per condition per replicate. The results were analyzed using multiple t testing, with the Holm-Sidak correction for multiple comparisons, in GraphPad Prism software. The corresponding p-values are referred to as p.

[2] = system: C. elegans sarcomere myofilaments; assay: Quantifying muscle morphology and deterioration (myo-3p::MYO-3::GFP, strain RW1596); format: in vivo, Caenorhabditis elegans; conditions: late adulthood (day 14)
Description: Sarcomeres are fundamental muscle units, responsible for muscle contraction. C. elegans' sarcomeres consist of alternated filaments containing myosin and actin, similar to sarcomeres of vertebrates. While sarcomere myofilaments in the body wall of young animals are organized in parallel symmetric rows, sarcomere myofilaments in older animals become progressively disorganized with a more irregular shape and orientation.
By using a transgenic reporter strain that has a fusion of myosin heavy chain with fluorescent GFP (strain RW1596; myo-3p::MYO-3::GFP), muscle structure of C. elegans can be visualized in vivo. Combined with confocal microscopy and bioinformatic analysis this offers not only qualitative, but also quantitative readouts for the assessment of the organizational level of muscle fibers. An analytical method to quantify muscle deterioration has been optimized at the laboratory of Prof. Bart Braeckman (UGent; unpublished data). We used this technique to verify whether animals treated with Gal and/or Met, display a muscle phenotype resembling that of younger untreated individuals. […]
For each animal, the two morphological metrics ‘aspect ratio’ and ‘smoothness’ were extracted. […] The aspect ratio is calculated as the ratio of the length of the major axis (=length) and the length of the minor axis (=width) for individual myofilaments within a sarcomere. […]

[3] = system: glutathione S-transferase 4 (gst-4) gene transcription; assay: In vivo gene activity assay (gst-4p::GFP reporter); parameters: species or system Caenorhabditis elegans; conditions: GFP fluorescence; treated from L1 until late L4 stage
Description: The transparent body of C. elegans allows for straightforward and non-invasive measurements of in vivo gene transcription via transgenic fluorescent reporters^9. We measured transcription of the gst-4p::GFP C. elegans GFP reporter to gain insight into the intracellular signaling networks that are affected by Met and/or Gal. Additionally, we tested whether Met and Gal have a synergistic or potentiating effect on activation of gst-4 gene transcription.
The gst-4 gene encodes for the cytoprotective and drug-metabolizing enzyme glutathione S-transferase 4 (GST-4). Gst-4 is a direct target of SKN-1, an ortholog of the mammalian Nuclear Factor E2-Related Factor (Nrf2) protein family that is a key transcription factor involved in the protection against oxidative and xenobiotic stresses. […] In C. elegans aging research, transcriptional activation of gst-4 is often used as a read-out for SKN-1 activity. […] GFP fluorescence was quantified using an automated method, as described earlier^11. In short: JMET69 animals with genotype ls[gst-4(1491 bp)::gfp;unc-119(+)];ls[unc-54^p::mCherry;unc-119(+)] were grown in the presence and absence of drugs (i.e. Met and/or Gal) on NGM plates seeded with E. coli OP50, from the L1 until the late L4 stage, before transfer to a 96 well plate for fluorescence quantification. […]

[4] = system: wild-type C. elegans N2 strain; assay: Life span assay, repeated dosing (manual scoring on NGM agar plates); format: in vivo, Caenorhabditis elegans; conditions: for Decrease MLS versus combo Met25 + Gal100 / Increase MLS versus untreated control / Max LS / Median LS: repeated dosing; for MLS ± SEM (mean life span): repeated dosing from first day of adulthood; for Max LS: day on which 10% of the animals are still alive; for Median LS: day on which 50% of the animals are still alive
Procedure: (§2) The wild-type C. elegans N2 strain was obtained from the Caenorhabditis Genetic Center (University of Minnesota, USA) and was cultivated at 20° C. on standard nematode growth medium (NGM) seeded with a thin layer of Escherichia coli OP50, unless stated otherwise. Life span of C. elegans was measured analogous to methods described earlier^1,2. The first day of adulthood was always recorded as day 0. FUdR (5-fluoro-2′-deoxyuridine, Sigma-Aldrich) was used in all life span assays to avoid progeny production. Multiple independent assays were carried out. A minimum of 100 animals per condition per assay was used, as to ensure sufficient statistical power.
During the ‘repeated dosing assay’, we followed the standard method in the field (i.e. manual inspection of survival of age-synchronized populations on bacteria-coated agar plates^2), which is robust and technically relatively simple. In short, at the onset of adulthood, animals were transferred to standard NGM assay plates (untreated control) or NGM assay plates supplemented with the corresponding compounds at different doses (Table 1). Animals were transferred to fresh standard NGM assay plates or fresh NGM assay plates supplemented with the corresponding compounds at different doses thrice in the first week and weekly thereafter (for a total duration of 33 days). This dosing schedule is in accordance with standardized protocols from the Caenorhabditis Intervention Testing Program (CITP)^4. Met was added to the NGM prior to autoclaving, whereas Gal was pipetted onto the seeded assay plates (at least two hours prior to transferring animals on to the assay plates). A same volume of liquid was added to all plates, also to plates of the untreated control and Met condition (i.e. mock treatment). Animals that crawled off the assay plates or died of internal hatching were censored. The number of live and dead worms was scored every one to two days.

[5] = system: C. elegans; assay: WorMotel-based locomotion tracking (single dosing); format: in vivo, Caenorhabditis elegans; conditions: for increase in maximal baseline activity compared to the untreated control: baseline = prior to blue light stimulus; for increase in total number of healthy days (locomotion-based health span) versus untreated control: days with activity >15% of mean maximal activity of untreated control
Procedure: (§3) During the ‘single dosing assay’, we used the WorMotel platform for long-term recurrent imaging of C. elegans^3. This semi-automated platform allows for unbiased longitudinal monitoring of C. elegans aging phenotypes, including daily measurements of survival as well as locomotion quantification. From the onset of adulthood, animals were confined to individual wells in screening plates (i.e. microfabricated WorMotel chips prepared as described in^3) that were seeded with E. coli HT115(DE3) as a food source and supplemented with the corresponding compounds at different doses (Table 1). Four replicate screening plates were assayed, with all four tested conditions present on each screening plate (in randomized locations). Animals were kept on the same screening plates for the duration of the experiment (i.e. 30 days). The time of death is determined as the final time of nonzero movement. Note that this imaging platform is incompatible with repeated dosing. We used the statistical software R to construct Kaplan-Meier survival curves, calculate mean and median life span and carry out all related statistical analyses. To compare survival between two conditions, log-rank tests were used (i.e. survdiff function of the survival package, adjusted for multiple comparisons via the Benjamini-Hochberg method). The corresponding p-values are referred to as plog-rank.
as §1
Each imaging period, the mean and maximum locomotion activity before and after a blue light stimulus are quantified (as described in^3). The resulting activity values are termed ‘baseline locomotion’ and ‘stimulated locomotion’, respectively. […] An increase in ‘healthy days’ is indicative for an increase in locomotion-based healthspan. Results were analyzed using one-way and two-way ANOVAs, with the Holm-Sidak correction for multiple comparisons in GraphPad Prism software. All corresponding p-values are referred to as pANOVA.

[6] = system: wild-type C. elegans N2 strain; assay: Life span assay, single dosing (WorMotel platform); format: in vivo, Caenorhabditis elegans; conditions: for Decrease MLS versus combo Met25 + Gal100 / Increase MLS versus untreated control / Max LS / Median LS / survival compared to the untreated control: single dosing; for MLS ± SEM (mean life span): single dosing at first day of adulthood, pooled assays; for Max LS: day on which 10% of the animals are still alive; for Median LS: day on which 50% of the animals are still alive; for survival compared to the untreated control: log-rank test
Procedure: as §2, §3

Row | SMILES | Fraction running ± SEM [1] | Maximal speed ± SEM [1] | Mean speed ± SEM [1] | Cell occupancy ± SEM [1] | sarcomere aspect ratio versus untreated control (in words) [2] | gst-4 transcription level change compared to the untreated control [3] | Decrease MLS versus combo Met25 + Gal100 [4] | Increase MLS versus untreated control [4] | MLS ± SEM (mean life span) [4] [days] | Max LS [4] [days] | Median LS [4] [days] | increase in maximal baseline activity compared to the untreated control [5] [%] | increase in total number of healthy days (locomotion-based health span) versus untreated control [5] | Decrease MLS versus combo Met25 + Gal100 [6] [% *] | Increase MLS versus untreated control [6] | MLS ± SEM (mean life span) [6] [days] | Max LS [6] [days] | Median LS [6] [days] | survival compared to the untreated control [6]
1 | COc1ccc2c3c1O[C@H]1C[C@@H](O)C=C[C@@]31CCN(C)C2 [Gal 100, Galantamine hydrobromide] | 48 ± 2 ^NS % | 270 ± 17 ^NS μm/s | 48 ± 4 ^NS μm/s | 11 ± 1 ^NS unique areas visited | no significant increases in aspect ratio | +9% | −12.5% **** | +6.8% * | 16.87 ± 0.32 | 22 | 17 | 15 | +20% | −3.9 | +12.8% *** | 19.63 ± 0.44 | 27 | 20 | significantly increased survival
2 | CN(C)C(=N)NC(=N)N.Cl [Met 25, 1,1-Dimethylbiguanide hydrochloride] | 67 ± 2 % | 262 ± 8 ^NS μm/s | 102 ± 5 μm/s | 28 ± 3 unique areas visited | no significant increases in aspect ratio | +26% | −8.3% | +11.9% **** | 17.68 ± 0.50 | 23 | 18 | 35 | +14% | −6.7 | +9.6% ** | 19.08 ± 0.58 | 28 | 20 | significantly increased survival
